# In paper PMC8658773, “Two New Isoprenoid Flavonoids from Sophora flavescens with Antioxidant and Cytotoxic Activities” (Molecules, 2021):
# Like-named read-outs stand apart in the source and are kept apart here.
# Key:
# A549 cells [1] = experiment: Cytotoxic activity (MTS assay), A549; format: cell-based, human; settings: SD in brackets; for inhibition at 10 µM: Homo sapiens, A549, read-out: A549 cell inhibitory activity (Table S5)
# A549 cells [2] = experiment: Cytotoxic activity (MTS assay), A549; format: cell-based, human; settings: for IC50: MTS
# Description: (§1) The tests were conducted according to our previous reports. The cells were grown in DMEM medium supplemented with 10% FBS, penicillin (100 U/mL), and streptomycin (100 μg/mL) in a 37 °C and 5% CO2 incubator. The cytotoxic activities were performed by the MTS assay. Briefly, 28 compounds were dissolved with DMSO. The cells were seeded at 1 × 10^5 cells/mL in 96-well plates (100 µL/well) and cultured for 18 h when the cells filled the bottom of the wells. Then the supernatant was discard, the compounds (10 μM, 100 µL/well) were added to the culture and incubated for 24 h before cell viability measurement. 10 µL MTS reagent (0.5 mg/mL) were added and further incubated for 4 h. Finally, absorbance was read using an automatic micro-plate reader (Molecular Devices, USA) at 490 nm to test the cell viabilities, and the results were presented as the percent of non-treated control for each concentration. Irinotecan was used as the positive control. All measurements were repeated in triplicate. Data were expressed as the mean ± SD.
# MCF7 cells [3] = experiment: Cytotoxic activity (MTS assay), MCF7; format: cell-based, human; settings: SD in brackets; for inhibition at 10 µM: Homo sapiens, MCF7, read-out: MCF-7 cell inhibitory activity (Table S6)
# MCF7 cells [4] = experiment: Cytotoxic activity (MTS assay), MCF7; format: cell-based, human; settings: for inhibition at 10 µM / IC50: Homo sapiens, MCF7, 24 h; for inhibition at 10 µM: read-out: MCF7 inhibition rate; for IC50: MTS
# Description: as §1
# HepG2 cells [5] = experiment: Cytotoxic activity (MTS assay), HepG2; format: cell-based, human; settings: SD in brackets; for inhibition at 10 µM: Homo sapiens, HepG2, 10 µM, read-out: HepG2 cell inhibitory activity (Table S4)
# LO2 cells = experiment: Cytotoxic activity (MTS assay), LO2 normal cells; format: cell-based, human; settings: for inhibition at 10 µM: Homo sapiens, L02, read-out: LO2 cell inhibitory activity (Table S7)
# [6] = DPPH free radical scavenging assay; format: biochemical; settings: for DPPH radical scavenging activity (inhibition rate): 20 μg/mL, SD in brackets
# Description: The in vitro antioxidant activity tests were conducted according to previous reports. Among them, the DPPH free radical scavenging assay was slightly modified. Briefly, the DPPH material was precisely weighed, ethanol solution was added to obtain a concentration of 0.1 mmol/L (to use immediately, or store in the dark). Then, the compounds (100 µL, 40 µg/mL) with DPPH solution (100 µL) (Ai) were added to 96-well plates and incubated for 30 min at room temperature. Subsequently, the activity was measured using the Thermo Scientific Varioskan LUX ([…], VL0L00D0, USA), with an absorbance of 570 nm. Vitamin C (VC) (40 µg/mL) was used as the positive control.
# [7] = PTIO free radical scavenging assay; format: biochemical; settings: for PTIO radical scavenging activity (inhibition rate): 8 μg/mL, SD in brackets
# Description: PTIO free radical scavenging was also performed following previous reports with some modification. VC was used as the positive control. PTIO radicals were dissolved with phosphate buffer (PBS) (pH 7.4, 50 mM) with a concentration of 0.05 mg/mL. Then, the samples (40 µL, 40 µg/mL) and PTIO solution (160 µL) were added into 96-well plates (as the value of Ai). After being thoroughly mixed, the reaction solution was incubated at 37 °C in a water-bath for 2 h. Then, the absorbance was measured at 557 nm. PTIO free radical scavenging was calculated using the above equation. (40 µL PBS with 160 µL PTIO as A0, 40 µL compounds with 160 µL PBS as Aj).
# HepG2 cells [8] = experiment: Cytotoxic activity (MTS assay), HepG2; format: cell-based, human; settings: for inhibition at 10 µM: HepG2, 24 h, read-out: HepG2 inhibition rate; for IC50: 24 h, MTS
# Description: as §1
# [9] = test system: HepG2, A549 and MCF7 cells; experiment: Cytotoxic activity (MTS assay), stated jointly for three cancer cell lines; format: cell-based; settings: Homo sapiens, read-out: IC50 values against the three cancer cell lines (range)
# Description: as §1
# [10] = ABTS free radical scavenging assay; format: biochemical; settings: for ABTS radical scavenging activity (inhibition rate): 20 μg/mL, SD in brackets
# Description: The third assay, the ABTS free radical scavenging screen was performed by previous experiments with slight changes. First, we needed to prepare for the ABTS^+ solution. […] Then, they were mixed with equal volume at room temperature and kept away from light for 12 h, the mixed solution was diluted with ethanol until the absorbance of […]. Thus, the ABTS^+ solution was obtained. Furthermore, the compounds (100 µL, 40 µg/mL) with ABTS^+ solution (100 µL) were also added to the 96-well plates (as the value of Ai) and were interacted for 10 min at room temperature in the dark, then the absorbance at 734 nm was measured. VC was used as the positive control. Antioxidant capacity was calculated according to the first formula (the value of 100 µL ethanol with 100 µL ABTS^+ solution as A0, the value of 100 µL compounds with 100 µL ethanol as Aj). All experiments were carried out in triplicate.
ABTS radical scavenging IC50 [10] [µg/mL],Compound,inhibition at 10 µM (A549 cells [1]) [%],inhibition at 10 µM (MCF7 cells [3]) [%],inhibition at 10 µM (MCF7 cells [4]) [%],inhibition at 10 µM (HepG2 cells [5]) [%],inhibition at 10 µM (LO2 cells; SD in brackets) [%],DPPH radical scavenging activity (inhibition rate) [6],PTIO radical scavenging activity (inhibition rate) [7],inhibition at 10 µM (HepG2 cells [8]; Homo sapiens) [%],ABTS radical scavenging activity (inhibition rate) [10],other results
,"C=C(C)C(CC=C(C)C)Cc1cc(OC)ccc1C1Oc2cc(O)cc(CC(CC=C(C)C)C(=C)C)c2C(=O)C1O (stereo not shown) [Compound 1, 7-hydroxy-5,1-bis (5-methyl-2-isopropyl-hexene) -flavanonol]",58,85,85,84.1,29.4,40.0% (4.9%),37.3% (3.4%),84,,"inhibition at 10 µM (A549 cells [2]; Homo sapiens, A549, 10 μM, 24 h, read-out: A549 inhibition rate): 58%; IC50 (A549 cells [2]; Homo sapiens, A549, 24 h): 10.6 µM; IC50 (MCF7 cells [4]): 7.5 µM; Cytotoxic effect on LO2 human normal cells (in words) (LO2 cells; compared with cancer cells): little effect; IC50 (HepG2 cells [8]; Homo sapiens, HepG2): 9.6 µM; IC50 [9]: 7.5 to 10.6 µM"
1.81,"C=C(C)C(CC=C(C)C)Cc1c(O)c(OC)c2c(c1O)C(=O)C(O)C(c1ccc3c(c1)OCO3)O2 (stereo not shown) [Compound 2, 5,7-dihydroxy-8-methoxy-6-(5-methyl-2-iso-hexenyl)-3′,4′-methylene dioxy-flavanonol]",17.2,10.3,10.3,19.9,27.9,42.3% (1.5%),41.0% (2.6%),19.9,,
2.05,"C=C(C)[C@H](CCC(C)(C)O)Cc1c(O)cc(OC)c2c1O[C@H](c1ccc(O)cc1O)[C@@H](O)C2=O [Compound 3, kushenol H]",11.3,-4.5,4.5,1.9,15.5,53.5% (0.4%),,1.9,,
,kushenol A [Compound 13],,,,,,25.6% (2.4%),35.6% (1.0%),,81.5% (1.9%),"A549 cell inhibitory activity (Table S5) (A549 cells [1]; 10 μg/mL): 17.6% (0.6%); Inhibition of A549 cells (in words) (A549 cells [2]): could hardly inhibit; MCF-7 cell inhibitory activity (Table S6) (MCF7 cells [3]; 10 μg/mL): 11.5% (2.1%); Inhibition of MCF7 cells (in words) (MCF7 cells [4]): could hardly inhibit; HepG2 cell inhibitory activity (Table S4) (HepG2 cells [5]; 10 μg/mL): 97.5% (0.1%); LO2 cell inhibitory activity (Table S7) (LO2 cells; 10 μg/mL, SD in brackets): 26.8% (2.7%); IC50 (HepG2 cells [8]): 6.85 µM"
,"CCc1c2c(nc3ccc(OC(=O)N4CCC(N5CCCCC5)CC4)cc13)-c1cc3c(c(=O)n1C2)COC(=O)[C@]3(O)CC [irinotecan, reference compound]",,,,,,,,,,"IC50 (A549 cells [2]; Homo sapiens, A549, 24 h): 1 µM; IC50 (MCF7 cells [4]): 0.9 µM; IC50 (HepG2 cells [8]; Homo sapiens, HepG2): 0.6 µM"
2.91,"COc1cc(O)c(CC=C(C)C)c2oc(-c3ccc(O)cc3)c(O)c(=O)c12 [Compound 14, sophoflavescenol]",6.9,2.8,,11.4,5.5,,55.0% (9.4%),,,DPPH radical scavenging IC50 [6]: 3.52 µg/mL; PTIO radical scavenging IC50 [7]: 5.51 µg/mL
3.52,"C=C(C)[C@H](CC=C(C)C)Cc1c(O)cc(OC)c(C(=O)/C=C/c2ccc(O)cc2O)c1O [Compound 6, kuraridine]",2,15,,0.9,-0.2,41.9% (5.6%),40.6% (2.2%),,,
,"O=c1cc(-c2ccc(O)cc2)oc2cccc(O)c12 [Compound 22, 5,4′-dihydroxyflavone]",29.7,9,,0.6,-4.6,34.6% (3.4%),39.4% (1.0%),,76.3% (4.7%),
,"CC(C)=CCc1c(O)cc(O)c2c1OC(c1ccc(O)cc1)CC2=O (stereo not shown) [Compound 10, sophoraflavanone B]",8,7.7,,9.3,4.7,32.2% (1.9%),38.6% (1.3%),,88.0% (2.1%),
3.72,"C=C(C)C(CCC(C)(C)O)Cc1c(O)cc(OC)c2c1OC(c1ccc(O)cc1O)C(O)C2=O (stereo not shown) [Compound 4, kushenol L]",8.2,-0.7,0.7,4.6,3.2,37.1% (3.0%),39.4% (1.3%),4.6,,
